Data reported in ChEMBL document CHEMBL1201862, “PubChem BioAssay data set” (2004).
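Method: 48-hour compound exposure of cells in 96-well plates, five concentrations, linear interpolation of endpoints. GI50 is the concentration that inhibits growth by half.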 Activity calls are given as the source filed them. Rule as the data show it: active = GI50 up to about 1.1 µM and inactive = higher.

Columns and labels:
Test in all cases: inhibition of tumour cell growth, NCI panel, 48 h
M14 = tested on: M14
NCI-H460 = tested on: NCI-H460
T47D = tested on: T47D
PC-3 = tested on: PC-3
K562 = tested on: K562
COLO 205 = tested on: COLO 205
NCI-H23 = tested on: NCI-H23
HOP-62 = tested on: HOP-62
MDA-MB-231 = tested on: MDA-MB-231
SNB-19 = tested on: SNB-19
TK-10 = tested on: TK-10
UACC-62 = tested on: UACC-62
A498 = tested on: A498
SK-OV-3 = tested on: SK-OV-3
EKVX = tested on: EKVX
SW-620 = tested on: SW-620
MDA-MB-435 = tested on: MDA-MB-435
U-251 = tested on: U-251
OVCAR-3 = tested on: OVCAR-3
HCT-15 = tested on: HCT-15

| SMILES | GI50 (M14) | GI50 (NCI-H460) | GI50 (T47D) | GI50 (PC-3) | GI50 (K562) | GI50 (COLO 205) | GI50 (NCI-H23) | GI50 (HOP-62) | GI50 (MDA-MB-231) | GI50 (SNB-19) | GI50 (TK-10) | GI50 (UACC-62) | GI50 (A498) | GI50 (SK-OV-3) | GI50 (EKVX) | GI50 (SW-620) | GI50 (MDA-MB-435) | GI50 (U-251) | GI50 (OVCAR-3) | GI50 (HCT-15) |
| --- | --- | --- | --- | --- | --- | --- | --- | --- | --- | --- | --- | --- | --- | --- | --- | --- | --- | --- | --- | --- |
| CC1(C)C2CCC1(C)C(NC(=O)CCN1CCOCC1)C2 (centres undefined) | > 100 µM (inactive) | > 100 µM (inactive) | > 100 µM (inactive) | > 100 µM (inactive) | > 100 µM (inactive) | > 100 µM (inactive) | > 100 µM (inactive) | > 100 µM (inactive) | > 100 µM (inactive) | > 100 µM (inactive) | > 100 µM (inactive) | > 100 µM (inactive) | > 100 µM (inactive) | > 100 µM (inactive) | > 100 µM (inactive) | > 100 µM (inactive) | > 100 µM (inactive) | > 100 µM (inactive) | > 100 µM (inactive) | – |
| Cc1ccc(/C=N/n2c(-c3ccc(C)cc3)n[nH]c2=O)cc1 | 68.4 µM (inactive) | 21.5 µM (inactive) | > 100 µM (inactive) | > 100 µM (inactive) | 96.4 µM (inactive) | > 100 µM (inactive) | 29.2 µM (inactive) | 61.9 µM (inactive) | 45.8 µM (inactive) | 77.4 µM (inactive) | 60.8 µM (inactive) | 78 µM (inactive) | 26.9 µM (inactive) | 28.7 µM (inactive) | > 100 µM (inactive) | > 100 µM (inactive) | 47.2 µM (inactive) | 35.3 µM (inactive) | > 100 µM (inactive) | 66.7 µM |
| O=c1c2ccccc2n2c(-c3ccccc3O)nnc2n1-c1ccccc1 | > 100 µM (inactive) | > 100 µM (inactive) | > 100 µM (inactive) | > 100 µM (inactive) | > 100 µM (inactive) | > 100 µM (inactive) | > 100 µM (inactive) | > 100 µM (inactive) | > 100 µM (inactive) | > 100 µM (inactive) | > 100 µM (inactive) | > 100 µM (inactive) | > 100 µM (inactive) | > 100 µM (inactive) | > 100 µM (inactive) | > 100 µM (inactive) | > 100 µM (inactive) | > 100 µM (inactive) | > 100 µM (inactive) | > 100 µM |
| CCOc1cc2c(cc1O)CC[C@@H]1[C@@H]2CC[C@]2(C)C(OS(=O)OC3CC[C@@H]4[C@H]5CCc6cc(O)c(OCC)cc6[C@@H]5CC[C@@]34C)CC[C@@H]12 (some centres undefined) | 0.592 µM (active) | 0.581 µM (active) | 5.66 µM (inactive) | 3.94 µM (inactive) | 0.316 µM (active) | 23.1 µM (inactive) | 1.84 µM (inactive) | 0.887 µM (active) | 4.06 µM (inactive) | 2.64 µM (inactive) | 19.7 µM (inactive) | 1.19 µM (inactive) | 13.7 µM (inactive) | 1.16 µM (inactive) | 3.21 µM (inactive) | 0.355 µM (active) | 0.0601 µM (active) | 0.33 µM (active) | 0.313 µM (active) | 0.507 µM |
| C[C@H](NC1=CC(=O)C(N[C@@H](C)[C@H](O)c2ccccc2)=CC1=O)[C@H](O)c1ccccc1 | > 100 µM (inactive) | 63.8 µM (inactive) | 53.1 µM (inactive) | 43.1 µM (inactive) | > 100 µM (inactive) | 68.5 µM (inactive) | 67 µM (inactive) | > 100 µM (inactive) | 76.2 µM (inactive) | > 100 µM (inactive) | 55.7 µM (inactive) | 87.9 µM (inactive) | > 100 µM (inactive) | 69 µM (inactive) | > 100 µM (inactive) | > 100 µM (inactive) | 81.5 µM (inactive) | > 100 µM (inactive) | > 100 µM (inactive) | 68.9 µM |
| O=C(ON=C1c2ccccc2C(Br)C(Br)c2ccccc21)c1cc([N+](=O)[O-])cc([N+](=O)[O-])c1 (centres undefined) | 17.6 µM (inactive) | 19.2 µM (inactive) | 35.2 µM (inactive) | 28.5 µM (inactive) | 16.9 µM (inactive) | 20.3 µM (inactive) | 20.3 µM (inactive) | 18 µM (inactive) | 19.2 µM (inactive) | 24.1 µM (inactive) | 23.2 µM (inactive) | 18.7 µM (inactive) | 17.6 µM (inactive) | 27.1 µM (inactive) | 25.4 µM (inactive) | 18.7 µM (inactive) | 18.5 µM (inactive) | 15.8 µM (inactive) | 19.9 µM (inactive) | 20.5 µM |
| NC(=O)C1CCCN1Cc1ccc2c(c1)OCO2 (centres undefined) | > 100 µM (inactive) | > 100 µM (inactive) | > 100 µM (inactive) | > 100 µM (inactive) | > 100 µM (inactive) | > 100 µM (inactive) | > 100 µM (inactive) | > 100 µM (inactive) | > 100 µM (inactive) | > 100 µM (inactive) | > 100 µM (inactive) | > 100 µM (inactive) | > 100 µM (inactive) | > 100 µM (inactive) | > 100 µM (inactive) | > 100 µM (inactive) | > 100 µM (inactive) | > 100 µM (inactive) | > 100 µM (inactive) | > 100 µM |
